How the values were obtained:
[1] = target: kappa opioid receptors (KOR) (Homo sapiens, UniProt P41145); experiment: kappa opioid receptor (KOR) Ki determination by NIMH PDSP; type: binding
Description: (§1) The compounds from the above Examples were tested for activity vs. kappa opioid receptors (KOR) and for Sigma-1 activity. Ki determinations were generously provided by the National Institute of Mental Health's Psychoactive Drug Screening Program (PDSP), Contract # HHSN-271-2013-00017-C (NIMH PDSP). The NIMH PDSP is Directed by Bryan L. Roth MD, PhD at the University of North Carolina at Chapel Hill and Project Officer Jamie Driscoll at NIMH, Bethesda Md. U.S.A. Procedures employed by the PDSP are described in the NIMH PDSP Assay Protocol Book, Version II.

[2] = target: Sigma-1; experiment: Sigma-1 Ki determination by NIMH PDSP; type: binding
Description: as §1

kappa opioid receptors (KOR), sequence (P41145 whole entry): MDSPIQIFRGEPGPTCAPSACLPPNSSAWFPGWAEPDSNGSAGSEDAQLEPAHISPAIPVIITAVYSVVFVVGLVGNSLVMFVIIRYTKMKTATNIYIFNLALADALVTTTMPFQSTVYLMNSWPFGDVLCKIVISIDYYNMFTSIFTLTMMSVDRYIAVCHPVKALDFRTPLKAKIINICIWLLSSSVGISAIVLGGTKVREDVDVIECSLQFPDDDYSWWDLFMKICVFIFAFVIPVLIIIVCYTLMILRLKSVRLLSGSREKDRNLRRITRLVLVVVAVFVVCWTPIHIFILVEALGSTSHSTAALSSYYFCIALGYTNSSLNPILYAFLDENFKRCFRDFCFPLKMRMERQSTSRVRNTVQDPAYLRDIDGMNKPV

Row | Structure (SMILES) | Ki [1] | Ki [2]
1 | CN[C@]1(c2ccccc2Cl)CCCC[C@H]1NCCCN1CCN(C)CC1 (relative stereo) [Example 17a] | > 1000 nM | 19 nM
2 | CN[C@@]1(c2ccccc2Cl)CCCC[C@H]1NCCCn1ccnc1 (relative stereo) [Example 12b, Cis-1-(2-chlorophenyl)-N^2-(3-(1-imidazolyl)-propyl)-N^1-methylcyclohexane-1,2-diamine] | > 1000 nM | 231 nM
3 | CN[C@@]1(c2ccccc2Cl)CCCC[C@H]1NCCCN1CCOCC1 (relative stereo) [Example 16b] | 798 nM | 17 nM
4 | CN[C@@]1(c2ccccc2Cl)CCCC[C@H]1NC1CCCCC1 (relative stereo) [Example 18b, Cis-1-(2-chlorophenyl)-N^2-cyclohexyl-N^1-methylcyclohexane-1,2-diamine] | 608 nM | –
5 | CN[C@@]1(c2ccccc2Cl)CCCC[C@H]1NCCCN1CCN(C)CC1 (relative stereo) [Example 17b] | > 1000 nM | 72 nM
6 | CN[C@@]1(c2ccccc2Cl)CCCC[C@H]1NCCCc1ccccc1 (relative stereo) [Example 15b, Cis-1-(2-chlorophenyl)-N^2-(3-phenylpropyl)-N^1-methylcyclohexane-1,2-diamine] | 139 nM | 177 nM
7 | CN[C@]1(c2ccccc2Cl)CCCC[C@H]1NCCCc1ccccc1 (relative stereo) [Example 15a, Trans-1-(2-chlorophenyl)-N^2-(3-phenylpropyl)-N^1-methylcyclohexane-1,2-diamine] | 526 nM | 2260 nM

Source: patent publication US9283196B1, “Cycloalkyl-diamines for CNS disorders” (MediSynergics, LLC, priority 2013, dated 2016)
